# Measured values published in US4520022A, “Substituted vinyl cephalosporins” (priority 1983, dated 1985).
# Like-named read-outs stand apart in the source and are kept apart here.
# Columns and labels:
# [1] = system: Gp Ib: S. aureus 193, BX-1633-2 A9606, A15092, Russell, A9602; conditions: Staphylococcus aureus, read-out: Minimum Inhibitory Concentration Gp Ib, Mueller-Hinton agar, average of five organisms
# in vivo = conditions: mouse; for half-life: T1/2
# [2] = system: Gp Ia: S. aureus Smith A9537, A9497, Terajima, A9534, A9601; conditions: Staphylococcus aureus, read-out: Minimum Inhibitory Concentration Gp Ia, Mueller-Hinton agar, average of five organisms
# [3] = mouse, in vivo
# E. coli Juhl = assay: Protective dose, mice infected with lethal inoculum, oral treatment, E. coli Juhl; type: in vivo; conditions: for ED50: Escherichia coli, po, 120 h, oral, 50% survival for 5 days, groups of 5 mice, read-out: Protective dose (PD50), E. coli Juhl
# S. aureus Smith = assay: Protective dose, mice infected with lethal inoculum, oral treatment, S. aureus Smith; type: in vivo; conditions: Staphylococcus aureus, po, 120 h, oral; 50% survival for 5 days; groups of 5 mice; read-out: Protective dose (PD50), S. aureus Smith
SMILES,MIC ([1]; run 1),"AUC (in vivo; im, 20 mg/kg, AUC*)","Cmax (in vivo; im, 20 mg/kg)","half-life (in vivo; im, 20 mg/kg)","AUC (in vivo; po, 20 mg/kg, AUC*)","Cmax (in vivo; po, 20 mg/kg)","half-life (in vivo; po, 20 mg/kg)","AUC (in vivo; po, 100 mg/kg, AUC)","Cmax (in vivo; po, 100 mg/kg)","half-life (in vivo; po, 100 mg/kg)",MIC ([2]; run 1),oral absorption ([3]; po),MIC ([1]; run 2),ED50 (E. coli Juhl),activity against the Gram- infection (E. coli Juhl; in words),"T1/2 ([3]; im, 20 mg/kg)","T1/2 ([3]; po, 20 mg/kg)","T1/2 ([3]; po, 100 mg/kg)",MIC ([2]; run 2),ED50 (S. aureus Smith)
"COC/C=C\C1=C(C(=O)O)N2C(=O)[C@@H](NC(=O)[C@H](N)c3ccc(O)cc3)[C@H]2SC1 [Compound 17, 7β-[D-2-Amino-2-(p-hydroxyphenyl)acetamido]-3-[(Z)-3-methoxy-1-propen-1-yl]-3-cephem-4-carboxylic Acid]",2.1 µg/mL,19000 ng·h/mL,24000 ng/mL,0.6 h,28000 ng·h/mL,18000 ng/mL,1.6 h,197000 ng·h/mL,73000 ng/mL,1.7 h,0.53 µg/mL,–,–,–,–,–,–,–,–,–
"N[C@@H](C(=O)N[C@@H]1C(=O)N2C(C(=O)O)=C(C=CCSc3cnn[nH]3)CS[C@H]12)c1ccc(O)cc1 [Compound 21, 7β-[D-2-Amino-2-(p-hydroxyphenyl)acetamido]-3-[3-(1H-1,2,3-triazol-5-yl)thio-1-propen-1-yl]-3-cephem-4-carboxylic Acid]",2.7 µg/mL,9600 ng·h/mL,16000 ng/mL,0.54 h,6600 ng·h/mL,1700 ng/mL,2.6 h,19000 ng·h/mL,4400 ng/mL,3.2 h,0.61 µg/mL,Uniformly good oral absorption is reflected except for Compound No. 21,–,–,–,–,–,–,–,–
"C/C=C\C1=C(C(=O)O)N2C(=O)[C@@H](NC(=O)[C@H](N)c3ccccc3)[C@H]2SC1 [Compound 24, 7β-(D(-)-2-Amino-2-phenylacetamido)-3-[(Z)-1-propen-1-yl]-3-cephem-4-carboxylic acid]",0.92 µg/mL,22000 ng·h/mL,31000 ng/mL,0.5 h,15000 ng·h/mL,7800 ng/mL,1.3 h,84000 ng·h/mL,40000 ng/mL,1.1 h,0.23 µg/mL,–,0.92 µg/mL,1.5 mg/kg,more active against the Gram- infection,0.58 h,0.69 h,1.1 h,0.3 µg/mL,0.18 mg/kg
"C/C=C\C1=C(C(=O)O)N2C(=O)[C@@H](NC(=O)[C@H](N)c3ccc(O)c(Cl)c3)[C@H]2SC1 [Compound 32, 7β-[D-2-Amino-2-(3-chloro-4-hydroxyphenyl)acetamido]-3-[(Z)-1-propen-1-yl]-3-cephem-4-carboxylic acid]",–,13000 ng·h/mL,21000 ng/mL,0.48 h,13000 ng·h/mL,7900 ng/mL,1.7 h,37000 ng·h/mL,25000 ng/mL,1.7 h,–,–,0.53 µg/mL,3.04 mg/kg,–,–,–,–,0.13 µg/mL,0.17 mg/kg
